Literature values as cited in patent US20180214412A1, “IMMEDIATE RELEASE CANNABINOID FORMULATIONS” (CannTab Therapeutics Limited, priority 2017, published 2018).

Settings: after administration

Q: Which “duration of appetite stimulant effect” value does the source give for `CCCCCc1cc(O)c2c(c1)OC(C)(C)[C@@H]1CCC(C)=C[C@@H]21` [Dronabinol, (−)-trans-Δ9-tetrahydrocannabinol] here?
A: ≥ 24 h
